Data as given in US20080176851A1, “Method for inhibiting lymphangiogenesis and inflammation” (Shiseido Company, Ltd., priority 2006, published 2008).
Entries after “also recorded” stand apart in the source; their conditions may differ.

Key:
cGMP production in LEC = experiment: cGMP enzyme immunoassay in siRNA-transfected LEC; assay type: cell-based, human
Experimental: siRNA transfection was performed using the Basic Nucleofactor Kit for primary mammalian endothelial cells (Amaxa Biosystems, CITY, Germany). Briefly, after trypsinization, LEC (5×10^5) were resuspended in 100 μl of basic nucleofactor solution. Cells were transfected by electroporation (Nucleofactor II, Amaxa Biosystems), using 1.6 μg of siRNA containing two different double-stranded oligonucleotides for each sGCα2 or sGCα1. The following siRNAs were used: GCα1: CCUUGUACAUAUAUCAGAUtt and GGCACCCUUAAAGAUUUUUtt, GCα2: CGAUACAGCAGACUCUCAAtt and GCUAUGCUCUGAUGUUUCAtt. Control siRNA (Silencer negative control #1 siRNA, Ambion, Cambridgeshire, UK) comprising a 19-bp scrambled sequence with 3′dT overhangs was used as a control; the sequences has no significant sequence homology to any known gene sequence. At 72 hours after tranfection, cells were used for RNA purification or for cGMP assays. Efficient knockdown of mRNA expression was confirmed by TaqMan real-time RT-PCR for sGCα1 and sGCα2 (Applied Biosystems assay ID for sGCα2 was Hs00181365_ml). For cGMP enzyme immunoassays, 1×10^4 siRNA-transfected LEC were seeded into individual wells of a 96-well plate and were incubated with 2% FBS-containing medium. After 24 hours, cells were incubated with several concentrations of SNAP (1-100 μM) for 15 minutes. The cellular cGMP concentrations were measured using an EIA immunoassay kit (Amersham Biosciences, Freiburg, Germany).

LEC [1] = experiment: LEC proliferation assay (5-methylumbelliferylheptanoate fluorescence); assay type: cell-based, human
Experimental: (§1) Human dermal BVEC and LEC were isolated from neonatal human foreskins by immunomagnetic purification as previously described(18, 19). The lineage-specific differentiation was confirmed by real-time RT-PCR for the lymphatic vascular markers Prox1, LYVE-1 and podoplanin, and for the blood vascukar endothelial markers VEGF receptor-1 and VEGF-C, as well as by immunostains for CD31, Prox1 and podoplanin as described(18, 19). Cells were cultured in endothelial basal medium (Cambrex, Verviers, Belgium) supplemented with 20% fetal bovine serum (Gibco, Paisley, UK), antibiotics, 2 mM L-glutamine, 10 μg/ml hydrocortisone and 2.5×10^−2 mg/ml N-6,2-O-dibutyryl-adenosine 3′,5′-cyclic monophosphate (all from Fluka, Buchs, Switzerland) for up to eleven passages.
LEC (1.5×10^3) were seeded into fibronectin-coated 96-well plates as described(19). For proliferation studies, quinduplicate wells were treated or not with different concentrations (0.1 to 10 μM) of the NO donor SNAP (S-Nitroso-N-acetyl-D,L-penicillamine) (Cayman Chemical, Ann Arbor, Mich.) in EBM containing 2% fetal bovine serum. In additional assays, LEC were incubated with 10 μM of SNAP, in the presence or absence of the specific guanylate cyclase inhibitor NS-2028 (100 nM, Cayman Chemical, Ann Arbor, Mich.). After 72 hours, cells were incubated with 5-methylumbelliferylheptanoate as described. The fluorescence intensity, proportional to the number of viable cells, was measured using a Spectra Max GEMINI EM (Bucher Biotech AG, Basel, Switzerland). Haptotatic cell migration was studied as described(19), using 24-well FluoroBlok inserts of 8 μm pore size (Falcon, Franklin Lakes, N.J.). […] After 3 hours incubation at 37° C., cells on the underside of the inserts were stained with Calcein-AM (Molecular Probes), and the fluorescence intensity, proportional to the number of viable cells, was measured using a Spectra Max GEMINI EM as described(19). […] Representative images were captured and the total length of tube-like structures per area was measured using the IP-LAB software as described(19). […]

HR-1 hairless mice [2] = experiment: UVB irradiation-induced ear swelling; assay type: in vivo; settings: for ear swelling after UVB irradiation vs control-treated: 200 mJ/cm^2 UVB, topical daily 1 mM SNAP or 10 μM NS-2028, days 2-4
Experimental: (§2) A total of 15 female albino HR-1 hairless mice (Hoshino Laboratory Animal Co., Ltd, Japan) at 8 weeks of age were exposed to a single dose of 200 mJ/cm^2 of UVB irradiation, using ten Toshiba FL-20 SE fluorescent lamps that deliver energy in the UVB (280-340 nm) wave length range with a maximum energy at a wavelength of 305 nm as described(31). Beginning one day before UVB irradiation, the right ears were daily treated topically with 1 mM of SNAP, 10 μM of NS-2028, or 1 mM of SNAP together with 100 μl of 10 μM of NS-2028 in a 50% ethanol solution (n=5 per group) until day 3 after UVB irradiation (5 times total). The left ears were treated with vehicle only. The thickness of the ears was measured every day until day 4 after the UVB irradiation. At 4 days after the UVB irradiation, mouse ears were fixed in cold acetone (AMeX procedure) (30)and were processed for histological analysis of paraffin sections. All animal studies were approved by the Shiseido Life Science Research Center Committee on Research Animal Care.

LEC [3] = experiment: LEC tube formation assay (type I collagen overlay); assay type: cell-based, human
Experimental: as §1
(§3) LEC (1.5×10^3) were seeded into fibronectin-coated 96-well plates as described(19). […] The fluorescence intensity, proportional to the number of viable cells, was measured using a Spectra Max GEMINI EM (Bucher Biotech AG, Basel, Switzerland). […] After 3 hours incubation at 37° C., cells on the underside of the inserts were stained with Calcein-AM (Molecular Probes), and the fluorescence intensity, proportional to the number of viable cells, was measured using a Spectra Max GEMINI EM as described(19). […] Representative images were captured and the total length of tube-like structures per area was measured using the IP-LAB software as described(19). […]

lymphatic vessels = experiment: LYVE-1 immunohistochemistry and morphometric analysis of cutaneous lymphatic vessels after UVB; assay type: in vivo; settings: UVB-irradiated mice; for enlargement of lymphatic vessels in the dermis (LYVE-1): vs vehicle
Experimental: (§4) Immunofluorescence analysis was performed on 6-μm cryostat sections of human neonatal foreskins as described, using polyclonal antibodies against LYVE-1 (kindly provided by Dr. David Jackson, Oxford, UK), sGCα1, sGCβ1, eNOS (as described above), or a mouse monoclonal antibody against human podoplanin (20) (clone D2-40, Signet Laboratories, Dedham, Mass.), and corresponding secondary antibodies labeled with AlexaFluor488 or AlexaFluor594 (Molecular Probes, Eugene, Oreg.). Immunohistochemical analysis was performed on 5 μm AMEX-fixed sections as described(30), using antibodies against the macrophage monocyte marker MOMA-2 (BMA Biomedicals AG, Switzerland) or LYVE-1. Routine hematoxylin-eosin staining was also performed. Sections were examined by a Nikon E-600 microscope (Nikon, Melville, N.Y.) and images were captured with a SPOT digital camera (Diagnostic Instruments, Sterling Heights, Mich.). Computer-assisted morphometric analyses of representative LYVE-1-stained sections were performed as described(3).
as §2

HR-1 hairless mice [4] = experiment: Histology (hematoxylin-eosin) and MOMA-2 immunohistochemistry of UVB-irradiated ears; assay type: in vivo; settings: for MOMA-2 positive cells / macrophage infiltration in the dermis / edema formation in the dermis vs control-treated: day 4 after UVB irradiation
Experimental: as §4, §2

LEC [5] = experiment: Haptotactic LEC migration assay (FluoroBlok inserts); assay type: cell-based, human; settings: 10 μM SNAP, 100 nM NS-2028, 3 hours
Experimental: as §1, §3

[6] = day 4 after UVB, SNAP in the presence of NS-2028

Row | cGMP production in control siRNA- and sGCα2-siRNA transfected LEC (cGMP production in LEC; SNAP 1-100 μM, 15 minutes) | Compound | minimal effective dose for increased cGMP production (cGMP production in LEC; control siRNA-transfected and sGCα2 siRNA-transfected LEC, SNAP 15 minutes) [µM] | induction of cGMP production in sGCα1-siRNA transfected LEC (cGMP production in LEC; sGCα1 knockdown, SNAP 1-100 μM) | minimal effective concentration for induction of LEC proliferation (LEC [1]; SNAP 0.1 to 10 μM, 72 hours, EBM 2% fetal bovine serum) [µM] | ear swelling after UVB irradiation vs control-treated (HR-1 hairless mice [2]) | formation of tube-like structures vs untreated cultures (LEC [3]; 1 μM or 10 μM SNAP) | minimal effective dose for in vitro cord formation by LEC (LEC [3]; type I collagen gel overlay, 6 hours) [µM] | area occupied by lymphatic vessels (lymphatic vessels; day 4, mean±SEM n=5) [%] | average size of lymphatic vessels (lymphatic vessels; day 4, mean±SEM n=5) [μm^2] | enlargement of lymphatic vessels in the dermis (LYVE-1) (lymphatic vessels) | MOMA-2 positive cells / macrophage infiltration in the dermis (HR-1 hairless mice [4]) | edema formation in the dermis vs control-treated (HR-1 hairless mice [4]) | effect on SNAP-induced LEC proliferation (LEC [1]; 10 μM SNAP, NS-2028 100 nM, 72 hours) | effect on untreated LEC (proliferation) (LEC [1]; NS-2028 alone) | SNAP-induced augmentation of the UVB response (ear swelling) (HR-1 hairless mice [2]; combined topical treatment 1 mM SNAP and 10 μM NS-2028) | effect on SNAP-induced LEC migration (LEC [5]) | SNAP-induced enlargement of lymphatic vessels (lymphatic vessels; SNAP with NS-2028) | SNAP-induced edema formation (HR-1 hairless mice [4]; [6]) | SNAP-induced macrophage infiltration (HR-1 hairless mice [4]; [6])
1 | dose-dependently induced | CC(=O)NC(C(=O)O)C(C)(C)SN=O (racemic) [SNAP, S-Nitroso-N-acetyl-D,L-penicillamine] | 1 | no induction of cGMP was detected; also recorded: completely prevented | 1 | significantly enhanced | potently promoted | 1 | 2.18 | 730.7 | pronounced enlargement | strongly enhanced | enhanced | – | – | – | – | – | – | –
2 | – | 4H-8-Bromo-1,2,4-oxadiazolo(3,4-d)benz(b)(1,4)oxazin-1-one [NS-2028] | – | – | – | significantly reduced | – | – | – | 350.1 | completely blocked | less MOMA-2 positive cells | decreased | significantly blocked | did not have any effect | completely prevented | blocked; also recorded: strongly inhibited | inhibited | blocked | blocked
